Source: patent US6800637B2, “Antidepressant indolealkyl derivatives of heterocycle-fused benzodioxan methylamines” (Wyeth, priority 2002, dated 2004)

Columns and labels:
serotonin transporter = biological target: T1, serotonin transporter (Rattus norvegicus, UniProt P31652); test: Displacement of 3H-paroxetine from male rat frontal cortical membranes (serotonin transporter affinity); type: binding; conditions: read-out: 5-HT Transporter Affinity KI
T1 construct: displace ^3H-paroxetine from male rat frontal cortical membranes; from tissue; host or cells: male rat frontal cortex membranes

human 5-HT1A receptors = biological target: T2, human 5-HT1A receptors (Homo sapiens, UniProt P08908); test: Displacement of [3H] 8-OHDPAT from 5-HT1A receptor, CHO cells stably transfected with human 5-HT1A receptors; type: binding; conditions: CHO cells with human 5-HT1A receptors, read-out: 5-HT1A Receptor Affinity KI
T2 construct: expressed in transfected cells; host or cells: CHO cells
T2 sequence (P08908 1-422): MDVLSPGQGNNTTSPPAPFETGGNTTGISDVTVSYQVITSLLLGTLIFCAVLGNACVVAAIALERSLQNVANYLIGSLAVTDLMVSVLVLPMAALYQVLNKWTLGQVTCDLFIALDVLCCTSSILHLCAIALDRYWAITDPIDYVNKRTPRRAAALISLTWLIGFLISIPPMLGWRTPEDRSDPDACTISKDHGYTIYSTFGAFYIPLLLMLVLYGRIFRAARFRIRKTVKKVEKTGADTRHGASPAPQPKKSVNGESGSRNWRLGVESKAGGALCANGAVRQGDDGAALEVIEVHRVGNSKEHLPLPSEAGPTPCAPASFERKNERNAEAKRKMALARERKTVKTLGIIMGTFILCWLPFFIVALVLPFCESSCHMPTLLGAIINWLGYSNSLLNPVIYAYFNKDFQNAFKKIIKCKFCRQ
Text: High affinity for the serotonin 5-HT1A receptor was established by testing the claimed compound's ability to displace [^3H] 8-OHDPAT (dipropylaminotetralin) from the 5-HT1A serotonin receptor following a modification of the procedure of Hall et al., J. Neurochem. 44, 1685 (1985) which utilizes CHO cells stably transfected with human 5-HT1A receptors.

[1] = biological target: T3, cloned human 5HT1A receptors (Homo sapiens, UniProt P08908); test: 35S-GTPγS binding assay, membranes containing cloned human 5HT1A receptors; type: biochemical; conditions: for IC50: antagonist potency, reversal of the effects of the standard agonist 8-OHDPAT, read-out: 5-HT1A Function IC50; for Emax: maximum inhibitory effect, read-out: 5-HT1A Function (Imax)
T3 construct: expressed in transfected cells
T3 sequence (P08908 1-422): T2 sequence (P08908 1-422)
Experimental: Antagonist activity at 5-HT1A receptors was established by using a ^35S-GTPγS binding assay similar to that used by Lazareno and Birdsall (Br. J. Pharmacol. 109: 1120, 1993), in which the test compound's ability to affect the binding of ^35S-GTPγS to membranes containing cloned human 5HT1A receptors was determined. Agonists produce an increase in binding whereas antagonists produce no increase but rather reverse the effects of the standard agonist 8-OHDPAT. The test compound's maximum inhibitory effect is represented as the Imax, while its potency is defined by the IC50.

T1 sequence (P31652 whole entry): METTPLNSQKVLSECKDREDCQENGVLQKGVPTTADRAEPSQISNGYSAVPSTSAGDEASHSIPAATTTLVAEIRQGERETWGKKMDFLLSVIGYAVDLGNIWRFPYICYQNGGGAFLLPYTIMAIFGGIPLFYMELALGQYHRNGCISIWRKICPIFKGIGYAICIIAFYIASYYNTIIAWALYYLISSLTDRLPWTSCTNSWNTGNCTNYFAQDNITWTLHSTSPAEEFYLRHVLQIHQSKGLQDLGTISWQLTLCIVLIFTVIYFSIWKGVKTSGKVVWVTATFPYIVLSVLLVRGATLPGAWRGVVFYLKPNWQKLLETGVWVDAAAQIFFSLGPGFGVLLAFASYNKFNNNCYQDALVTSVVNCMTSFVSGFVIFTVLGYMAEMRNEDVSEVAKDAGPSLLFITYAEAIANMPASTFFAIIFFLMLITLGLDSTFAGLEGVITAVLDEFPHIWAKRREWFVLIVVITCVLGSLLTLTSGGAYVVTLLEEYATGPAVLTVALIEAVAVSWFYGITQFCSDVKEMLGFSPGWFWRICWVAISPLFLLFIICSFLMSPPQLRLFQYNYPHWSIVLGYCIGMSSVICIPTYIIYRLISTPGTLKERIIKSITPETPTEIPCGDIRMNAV

| Ki (serotonin transporter) | Ki (human 5-HT1A receptors) | IC50 [1] | Emax [1] | SMILES |
| --- | --- | --- | --- | --- |
| 1.85 nM | 0.7 nM | 19.3 nM | 85.8% | Cc1nc2ccc3c(c2o1)O[C@@H](CNCCCc1c[nH]c2ccc(F)cc12)CO3 [Example 23, N-[3-(5-Fluoro-1H-indol-3-yl)propyl]-N-(2-methyl-7,8-dihydro-[1,4]dioxino[2,3-g][1,3]benzoxazol-8-ylmethyl)amine] |
| 1.4 nM | 4.45 nM | 157 nM | 100% | Cc1nc2ccc3c(c2o1)OC(CN(C)CCCc1c[nH]c2ccc(F)cc12)CO3 (stereo not shown) [Example 24, N-[3-(5-Fluoro-1H-indol-3-yl)propyl]-N-methyl-N-(2-methyl-7,8-dihydro[1,4]dioxino[2,3-g][1,3]benzoxazol-8-ylmethyl)amine] |
| 0.6 nM | 5.47 nM | 43.5 nM | 94% | CCN(CCCc1c[nH]c2ccc(F)cc12)CC1COc2ccc3nc(C)ccc3c2O1 (stereo not shown) [Example 25, N-Ethyl-N-[3-(5-Fluoro-1H-indol-3-yl)propyl]-N-(8-methyl-2,3-dihydro-[1,4]dioxino[2,3-f]quinolin-2-ylmethyl)amine] |
| 5.9 nM | 3.26 nM | 180 nM | 90.2% | Cc1ccc2c3c(ccc2n1)OCC(CNCCCc1cn(C)c2c(F)cc(F)cc12)O3 (stereo not shown) [Example 26, N-[3-(5,7-Difluoro-1-methyl-1H-indol-3-yl)propyl]-N-(8-methyl-2,3-dihydro-[1,4]dioxino[2,3-f]quinolin-2-ylmethyl)amine] |
| 6.7 nM | 52.9 nM | 341 nM | 100% | Cc1ccc2c3c(ccc2n1)OCC(CN(C)CCCc1cn(C)c2c(F)cc(F)cc12)O3 (stereo not shown) [Example 27, N-[3-(5,7-Difluoro-1-methyl-1H-indol-3-yl)propyl]-N-methyl-N-(8-methyl-2,3-dihydro-[1,4]dioxino[2,3-f]quinolin-2-ylmethyl)amine] |
| 0.9 nM | 1.64 nM | 55.8 nM | 94% | Cc1ccc2c3c(ccc2n1)OCC(CNCCCc1c[nH]c2ccc(C#N)cc12)O3 (stereo not shown) [Example 29, 3-{3-[(8-Methyl-2,3-dihydro-[1,4]dioxino[2,3-f]quinolin-2-ylmethyl)-amino]-propyl}-1H-indole-5-carbonitrile] |
| 1.8 nM | 5.35 nM | 68 nM | 73.1% | Cc1nc2ccc3c(c2o1)O[C@@H](CNCCCc1c[nH]c2ccc(C#N)cc12)CO3 [Example 30, 3-{3-[(2-Methyl-7,8-dihydro-[1,4]dioxino[2,3-g][1,3]benzoxazol-8-ylmethyl)amino]-propyl}-1H-indole-5-carbanitrile] |
| 2.4 nM | 35.3 nM | 205 nM | 97.7% | Cc1nc2ccc3c(c2o1)O[C@@H](CN(C)CCCc1c[nH]c2ccc(C#N)cc12)CO3 [Example 31, 3-{3-[M thyl-(2-methyl-7,8-dihydro-[1,4]dioxino[2,3[-g][1,3]benzoxazol-8-ylmethyl)-amino]-propyl)}-1H-indole-5-carbonitrile] |
| 1 nM | 5.46 nM | 233 nM | 100% | Cc1ccc2c3c(ccc2n1)OC[C@H](CN(C)CCCc1c[nH]c2ccc(C#N)cc12)O3 [Example 32] |
| 2.2 nM | 21.2 nM | 200 nM | 73.5% | Cc1ccc2c3c(ccc2n1)OCC(CNCCCn1ccc2ccc(F)cc21)O3 (stereo not shown) [Example 33, [3-(6-Fluoro-indol-1-yl)-propyl]-(8-methyl-2,3-dihydro-[1,4]dioxino[2,3-f]quinolin-2-ylmethyl)amine] |
| 8.1 nM | 0.29 nM | 193 nM | 100% | Cc1ccc2c3c(ccc2n1)OCC(CN(C)CCCn1ccc2ccc(F)cc21)O3 (stereo not shown) [Example 34, [3-(6-Fluoro-indol-1-yl)-propyl]-methyl-(8-methyl-2,3-dihydro-[1,4]dioxino[2,3-f]quinolin-2-ylmethyl)-amine] |
| 2.4 nM | 0.56 nM | 66.6 nM | 78.9% | Cc1ccc2c3c(ccc2n1)OCC(CNCCCCc1cn(C)c2ccc(F)cc12)O3 (stereo not shown) [Example 35, [4-(5-Fluoro-1-methyl-1H-indol-3-yl)-butyl]-(8-methyl-2,3-dihydro-[1,4]dioxino[2,3-f]quinolin-2-ylmethyl)-amine] |
| 1.9 nM | 16.3 nM | 486 nM | 91.9% | CCN(CCCc1c[nH]c2ccc(F)cc12)C[C@H]1COc2ccc3nc(C)oc3c2O1 [Example 36, Ethyl-[3-(5-fluoro-1H-indol-3-yl)-propyl]-(2-methyl-7,8-dihydro-[1,4]dioxino[2,3-g][1,3]benzoxazol-8-ylmethyl)-amine] |
| 2.6 nM | 1.12 nM | 21.4 nM | 100% | Cc1ccc2c3c(ccc2n1)OC[C@H](CNCCCc1cn(C)c2ccc(C#N)cc12)O3 [Example 37, 1-Methyl-3-{3-[(8-methyl-2,3-dihydro-[1,4]dioxino[2,3-f]quinolin-2-ylmethyl)-amino]-proyl}-1H-indole-5-carbonitrile] |
| 1.31 nM | 0.06 nM | 25.8 nM | 85.5% | Cc1ccc2c3c(ccc2n1)OCC(CNCCCCn1ccc2ccc(F)cc21)O3 (stereo not shown) [Example 38, [4-(6-Fluoro-indol-1-yl)-butyl]-(8-methyl-2,3-dihydro-[1,4]dioxino[2,3-f]quinolin-2-ylmethyl)-amine] |
| 0.5 nM | 0.85 nM | 263 nM | 78.5% | Cc1ccc2c3c(ccc2n1)OC[C@H](CNCCCCc1c[nH]c2ccc(C#N)cc12)O3 [Example 39, 3-{4-[(8-Methyl-2,3-dihydro-[1,4]dioxino[2,3-f]quinolin-2-ylmthyl)-amino]-butyl}-1H-indole-5-carbonitrile] |
| 7 nM | 17.7 nM | 1980 nM | 100% | Cc1ccc2c3c(ccc2n1)OCC(CN(C)CCCc1cn(C)c2ccc(C#N)cc12)O3 (stereo not shown) [Example 40, 1-Methyl-3-{3-[methyl-(8-methyl-2,3-dihydro-[1,4]dioxino[2,3-f]quinolin-2-ylmethyl)-amino]-propyl}-1H-indole-5-carbonitrile] |
| 0.5 nM | 13.1 nM | 344 nM | 100% | Cc1ccc2c3c(ccc2n1)OCC(CN(C)CCCCc1c[nH]c2ccc(F)cc12)O3 (stereo not shown) [Example 43, [4-(5-Fluoro-1H-indol-3-yl)-butyl]-methyl-(8-methyl-2,3-dihydro-[1,4]dioxino[2,3-f]quinolin-2-ylmethyl}-amine] |
| 3.4 nM | 9.99 nM | 372 nM | 100% | Cc1ccc2c3c(ccc2n1)OCC(CN(C)CCCCc1cn(C)c2ccc(F)cc12)O3 (stereo not shown) [Example 44, [4-(5-Fluoro-1-methyl-1H-indol-3-yl)-butyl]-methyl-(8-methyl-2,3-dihydro-[1,4]dioxino[2,3-f]quinolin-2-ylmethyl)-amine] |
| 1 nM | 108 nM | 1090 nM | 100% | CCCN(CCCc1c[nH]c2ccc(F)cc12)CC1COc2ccc3nc(C)ccc3c2O1 (stereo not shown) [Example 45, [3-(5-Fluoro-1H-indol-3-yl)-propyl]-(8-methyl-2,3-dihydro-[1,4]dioxino[2,3-f]quinolin-2-ylmethyl)-propyl-amine] |
| 6.7 nM | 0.05 nM | 31.4 nM | 85.6% | Cc1ccc2c3c(ccc2n1)OCC(CNCCCn1ccc2c(F)cccc21)O3 (stereo not shown) [Example 46, [3-(4-Fluoro-indol-1-yl)-propyl]-(8-methyl-2,3-dihydro-[1,4]dioxino[2,3-f]quinolin-2-ylmethyl)-amine] |
| 1 nM | 4.42 nM | 191 nM | 75.2% | Cc1ccc2c3c(ccc2n1)OCC(CN(C)CCCCn1ccc2ccc(F)cc21)O3 (stereo not shown) [Example 47, [4-(6-Fluoro-indol-1-yl)-butyl]-methyl-(8-methyl-2,3-dihydro-[1,4]dioxino[2,3-f]quinolin-2-ylmethyl)-amine] |
| 4.2 nM | 24.7 nM | 500 nM | 100% | Cc1ccc2c3c(ccc2n1)OC[C@H](CN(C)CCCn1ccc2c(F)cccc21)O3 [Example 48] |
| 23 nM | 0.73 nM | 99 nM | 33% | Cc1ccc2c3c(ccc2n1)OC[C@H](CNCCCCc1csc2ccc(Cl)cc12)O3 [Example 49] |
| 9.7 nM | 0.45 nM | 69 nM | 50% | Cc1ccc2c3c(ccc2n1)OC[C@H](CNCCCc1csc2ccc(Cl)cc12)O3 [Example 50] |
